Experimental data from paper PMC7037447, “Syntheses of L-Rhamnose-Linked Amino Glycerolipids and Their Cytotoxic Activities against Human Cancer Cells” (Molecules, 2020).

What was measured:
[1] = system: MDA-MB-453; test: MTS cell viability assay, 48 h; format: cell-based, human
Protocol: Concentrations of compound 3 between 6–15 µM were sufficient to kill all the triple negative cell lines with the exception of MDA-MB-453 where viability was inhibited by 60% at the highest concentration tested. 30 µM of 3 was required for complete loss of viability of the hormone sensitive breast cancer BT474 cell line.
(§1) The cell lines were cultured from frozen stocks originally obtained from ATCC (Manassas, VA, USA). MDA-MB-231, JIMT-1, DU145, MDA-MB-468, Hs578t and MDA-MB-453 were grown in DMEM medium supplemented with 10% FBS. BT-474 cells were grown in DMEM/F12 medium supplemented with 10% FBS. MiaPaCa2 was cultured in DMEM supplemented with 10% FBS and 2.5% horse serum. All the media contained penicillin/streptomycin. U-251 and U-87 in Eagle MEM supplemented by 10% FBS, 1% Non-essential amino acids, 1 mM sodium pyruvate and 2 mM glutamine. BT-549 was cultured in RPMI 1640 medium supplemented with 10% FBS.
The effects of the GAELs on the viability of the epithelial cancer cell lines were determined as previously described. Briefly, equal numbers of the cells were dispersed into 96-well plates. After 24 h, the cells were incubated with the compounds (0–30 µM) for 48 h. […] (20% v/v) was subsequently added and the plates were incubated for 1–4 h in a CO2 incubator followed by measurement of the medium at OD490 with a plate reader (Molecular Devices). […]

[2] = system: PC-3; test: MTS cell viability assay, 48 h; format: cell-based, human; details: Homo sapiens; PC-3, 48 h, MTS; read-out: CC50
Protocol: The cells were incubated with increasing concentrations of the compounds (0–30 µM) for 48 h followed by assessment of cell viability using the MTS assay. […] This compound carries a primary amino group at the sn-3 position of the glycerolipid and L-rhamno sugar at the sn-2 position via an α-rhamnosidic linkage.
(§2) The effects of the GAELs on the viability of the epithelial cancer cell lines were determined as previously described. Briefly, equal numbers of the cells were dispersed into 96-well plates. After 24 h, the cells were incubated with the compounds (0–30 µM) for 48 h. MTS reagent [3-(4,5-dimethylthiazol-2-yl)-5-(3-carboxymethoxyphenyl)-2-(4-sulfophenyl)-2H-tetrazolium, inner salt; Promega, Madison, WI, USA] (20% v/v) was subsequently added and the plates were incubated for 1–4 h in a CO2 incubator followed by measurement of the medium at OD490 with a plate reader (Molecular Devices). Wells with media but no cells were treated in similar fashion and the values utilized as blank.

[3] = system: JIMT-1; test: Cell membrane integrity, ethidium homodimer-1 (EthD-1) staining; format: cell-based; details: JIMT-1, 15 µM, 4–6 h
Protocol: (§3) After determining that the mechanism of cell death of compound 3 is independent of caspases-mediated apoptosis, we evaluated if cell death was due to membrane disruption or lysis using the cell impermeant ethidium homodimer-1 (EthD-1) dye that emits red fluorescence upon binding to DNA [13, 14]. DU-145 and JIMT-1 were treated with compound 3 at 10 and 15 µM, respectively. After 4–6 h, the cells were treated with EthD-1 dye and monitored under fluorescence microscopy.
(§4) Equal numbers of JIMT-1 and DU145 cells were dispersed into 96-well plates. After 24 h the cells were incubated with varying concentration of compounds 3 or 4 (4–6 µM) for 5–6 h. Subsequently, 2 µM of the cell membrane impermeant dye, ethidium homodimer-1 (EthD-1 (Molecular Probes, Eugene, OR, USA) that emits red fluorescence upon binding to DNA was added and the cells analysed by fluorescence microscopy. EthD-1 staining was compared to negative controls with no treatment and positive control treated with 0.01% Triton X-100 for 10 min.
(§5) Figure 5 Evaluation of effect of compound 3 on cell membrane of DU-145 and JIMT-1 cell lines using cell impermeant ethidium homodimer-1 (EthD-1) dye that emits red fluorescence upon binding to DNA.

[4] = system: DU-145; test: as above; format: cell-based; details: DU-145, 10 µM, 4–6 h
Protocol: as §3, §4, §5

[5] = system: MDA-MB-231; test: MTS cell viability assay, 48 h; format: cell-based, human; details: Homo sapiens; MDA-MB-231, 48 h, MTS; concentration decreasing cell viability by 50% relative to untreated control; read-out: CC50
Protocol: […] […] This compound carries a primary amino group at the sn-3 position of the glycerolipid and L-rhamno sugar at the sn-2 position via an α-rhamnosidic linkage.
as §1
as §2, with “After 24 h, the cells were incubated with the compounds (0–30 µM) for 48 h.” left out, “Devices).” for “Devices). Wells with media but no cells were treated in similar fashion and the values utilized as blank.”

CCCCCCCCCCCCCCCCOCC(CN)OC1OC(C)C(O)C(O)C1O [Compound 3, 3-Amino-1-O-hexadecyloxy-2R-(O–α-L-rhamnopyranosyl)-sn-glycerol]
CC50 ([1]; Homo sapiens, MDA-MB-453): 13.8 µM | Viability inhibited ([1]; MDA-MB-453, at the highest concentration tested): 60% | CC50 [2]: 11 µM | Cell membrane lysis (EthD-1 staining) [3]: no significant cell membrane lysis | Cell membrane lysis (EthD-1 staining) [4]: no significant cell membrane lysis | CC50 [5]: 4.8 µM
